Entries after “also recorded” stand apart in the source; their conditions may differ. Peptide text beside a SMILES is read from it.
What was measured:
[1] = system: 11 clinically relevant bacterial pathogens; type: cell-based; settings: Supplementary Dataset 2; against the 11 pathogens tested
In short: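 Broth microdilution with peptides at 1 to 64 μmol l^−1. Inocula came from overnight LB cultures diluted 1:100 and grown at 37 °C to log phase (OD600 = 0.3–0.5); growth read by OD600, three biological replicates.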

A. baumannii ATCC 19606 [2] = assay: Skin abscess infection mouse model; type: in vivo, CD-1 mice; settings: for bacterial count, skin abscess (Panel 6b): CD-1 mice
Protocol: A. baumannii ATCC 19606 cells were grown in LB medium to an OD600 = 0.5. Cells were washed twice with sterile phosphate-buffered saline (PBS) (pH 7.4, 13,000 r.p.m. for 2 min) and resuspended to a final concentration of 10^6 (A. baumannii cells) colony-forming units per millilitre (c.f.u. ml^−1). Six-week-old female CD-1 mice from Charles River (stock number 18679700-022) were anaesthetized with isoflurane, and their backs were sterilized and shaved. A superficial linear skin abrasion was made with a needle to damage the stratum corneum and upper layer of the epidermis. An aliquot of 20 μl containing the bacterial load resuspended in PBS was inoculated over the scratched area. Two hours after the infection, peptides diluted in water at their MIC value were administered to the infected area, and the untreated mice were inoculated with the same volume of deionized water. Mice were euthanized, and the area of scarified skin was excised 2 days and 4 days post infection, homogenized using a bead beater for 20 min (25 Hz) and then serially diluted tenfold for quantification of colony-forming units. This quantitative method was used as it has been established to accurately reflect the number of bacteria present in a given infected area. MacConkey agar plates were used as A. baumannii colonies appear purple in this medium and can easily be distinguished from other strains. The experiments were performed with six mice per group. All experiments were performed blindly, and no animal subjects were excluded from the analysis. The skin abscess infection mouse model was approved by the University Laboratory Animal Resources from the University of Pennsylvania (protocol 806763). Statistical significance was determined using one-way analysis of variance (ANOVA) followed by Dunnett’s test in log10-transformed data to mitigate the effect of outliers; P values are presented for each group, with all groups being compared to the untreated control group.

A. baumannii ATCC 19606 [3] = assay: Neutropenic thigh infection mouse model; type: in vivo, CD-1 mice; settings: for bacterial count, thigh infection (Panel 6d): neutropenic CD-1 mice
Protocol: Six-week-old female CD-1 mice from Charles River (stock number 18679700-022) were rendered neutropenic by two doses of cyclophosphamide (150 mg kg^−1) applied intraperitoneally with an interval of 72 h. One day after the last dose of cyclophosphamide, the mice were injected intramuscularly in their right thigh with a bacterial load of 10^6 c.f.u. ml^−1 of A. baumannii ATCC 19606 cells. The bacteria had been grown in LB broth, washed twice with PBS (pH 7.4), and resuspended to the desired concentration. Two hours after bacterial injection, peptides resuspended in water were administered intraperitoneally, and the untreated mice were inoculated with the same volume of deionized water. Before each injection, mice were anaesthetized with isoflurane and monitored for respiratory rate and pedal reflexes. Next, we monitored the establishment of the infection and euthanized the mice. The infected area was excised 2 days and 4 days post infection, homogenized using a bead beater for 20 min (25 Hz), and then serially diluted tenfold for quantification of colony-forming units in MacConkey agar plates. The experiments were performed with six mice per group. All experiments were performed blindly, and no animal subjects were excluded from the analysis. The thigh infection mouse model was approved by the University Laboratory Animal Resources from the University of Pennsylvania (protocol 807055). Statistical significance was determined using one-way ANOVA followed by Dunnett’s test in log10-transformed data to mitigate the effect of outliers; P values are presented for each group, with all groups being compared to the untreated control group.

[4] = A. baumannii ATCC 19606, day 2, replicate 1
[5] = A. baumannii ATCC 19606, day 2, replicate 2
[6] = A. baumannii ATCC 19606, day 2, replicate 3
[7] = A. baumannii ATCC 19606, day 2, replicate 4
[8] = A. baumannii ATCC 19606, day 2, replicate 5
[9] = A. baumannii ATCC 19606, day 2, replicate 6
[10] = A. baumannii ATCC 19606, day 4, replicate 1
[11] = A. baumannii ATCC 19606, day 4, replicate 2
[12] = A. baumannii ATCC 19606, day 4, replicate 3
[13] = A. baumannii ATCC 19606, day 4, replicate 4
[14] = A. baumannii ATCC 19606, day 4, replicate 5
[15] = A. baumannii ATCC 19606, day 4, replicate 6

For `CC(C)C[C@H](NC(=O)CNC(=O)[C@H](CCCNC(=N)N)NC(=O)[C@H](CCCCN)NC(=O)[C@H](CCCNC(=N)N)NC(=O)[C@@H](N)CCCCN)C(=O)N[C@@H](CCCCN)C(=O)N[C@@H](CC(C)C)C(=O)N[C@@H](C)C(=O)N[C@H](C(=O)N[C@@H](C)C(=O)N[C@@H](CC(C)C)C(=O)N[C@@H](CO)C(=O)N[C@@H](CC(C)C)C(=O)N[C@@H](CC(N)=O)C(=O)N[C@@H](CC(N)=O)C(=O)N[C@@H](CCCCN)C(=O)N[C@@H](Cc1ccccc1)C(=O)O)[C@@H](C)O` [Mylodonin-2] (H-KRKRGLKLATALSLNNKF-OH; N-terminus and C-terminus assumed), the “Active or Inactive” value [1] was “Active”, the “bacterial count, skin abscess (Panel 6b)” value (A. baumannii ATCC 19606 [2]; [4]) was 200000 and the “bacterial count, skin abscess (Panel 6b)” value (A. baumannii ATCC 19606 [2]; [5]) was 200000. For the same molecule, the “bacterial count, skin abscess (Panel 6b)” value (A. baumannii ATCC 19606 [2]; [6]) was 600000, the “bacterial count, skin abscess (Panel 6b)” value (A. baumannii ATCC 19606 [2]; [7]) was 200000 and the “bacterial count, skin abscess (Panel 6b)” value (A. baumannii ATCC 19606 [2]; [8]) was 400000. The “bacterial count, skin abscess (Panel 6b)” value (A. baumannii ATCC 19606 [2]; [9]) was 400000, the “bacterial count, skin abscess (Panel 6b)” value (A. baumannii ATCC 19606 [2]; [10]) was 2000 and the “bacterial count, skin abscess (Panel 6b)” value (A. baumannii ATCC 19606 [2]; [11]) was 2000. For the same molecule, the “bacterial count, skin abscess (Panel 6b)” value (A. baumannii ATCC 19606 [2]; [12]) was 60000, the “bacterial count, skin abscess (Panel 6b)” value (A. baumannii ATCC 19606 [2]; [13]) was 80000 and the “bacterial count, skin abscess (Panel 6b)” value (A. baumannii ATCC 19606 [2]; [14]) was 200. The “bacterial count, skin abscess (Panel 6b)” value (A. baumannii ATCC 19606 [2]; [15]) was 200, the “Anti-infective activity in skin abscess model, in words” value (A. baumannii ATCC 19606 [2]; single dose at MIC, compared with untreated control and polymyxin B, n = 6) was “comparable to that of the widely used antibiotic polymyxin B; also recorded: inhibited the proliferation of the infection for up to 4 days after treatment; also recorded: cleared the infection in some of the mice” and the “bacterial count, thigh infection (Panel 6d)” value (“bacterial count … (Panel 6d)” for short) (A. baumannii ATCC 19606 [3]; [4]) was 1200000. For the same molecule, the “bacterial count … (Panel 6d)” value (A. baumannii ATCC 19606 [3]; [5]) was 2400000, the “bacterial count … (Panel 6d)” value (A. baumannii ATCC 19606 [3]; [6]) was 1000000 and the “bacterial count … (Panel 6d)” value (A. baumannii ATCC 19606 [3]; [7]) was 1800000. For the same molecule, the “bacterial count … (Panel 6d)” value (A. baumannii ATCC 19606 [3]; [8]) was 200000, the “bacterial count … (Panel 6d)” value (A. baumannii ATCC 19606 [3]; [9]) was 400000 and the “bacterial count … (Panel 6d)” value (A. baumannii ATCC 19606 [3]; [10]) was 1.2e+007. The “bacterial count … (Panel 6d)” value (A. baumannii ATCC 19606 [3]; [11]) was 1.2e+008, the “bacterial count … (Panel 6d)” value (A. baumannii ATCC 19606 [3]; [12]) was 2.0e+007 and the “bacterial count … (Panel 6d)” value (A. baumannii ATCC 19606 [3]; [13]) was 2.0e+007. The “bacterial count … (Panel 6d)” value (A. baumannii ATCC 19606 [3]; [14]) was 4.0e+007, the “bacterial count … (Panel 6d)” value (A. baumannii ATCC 19606 [3]; [15]) was 2.0e+007 and the “Reduction in bacterial counts, 2 days post treatment” value (A. baumannii ATCC 19606 [3]; neutropenic thigh infection, single intraperitoneal dose, n = 6) was “as much as polymyxin B; also recorded: most potent activity, which was comparable to that of the positive control antibiotic, polymyxin B”.
